Results on 27 compounds are retold here after US10647713B2 (Nimbus Lakshmi, Inc., priority 2016, dated 2020).

pKd: −log10 of the molar value. Bounds are passed on as bounds.

The experiment deals with human TYK2 (JH2domain-pseudokinase) (Homo sapiens (Human), UniProt P29597). Kind of experiment: TYK2 JH2 Domain Binding Assay (KINOMEscan, DiscoveRx). Conditions: 11-point dilution, duplicate. The essentials: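 TYK2 JH2 (G556–D888)–NFkB DBD fusion, DNA-tagged, from HEK293 extracts (<0.1 nM) competed against immobilised biotinylated ligand for 1 h at room temperature, 0.9% DMSO. Bead-retained kinase quantified by qPCR; Kd from 11-point 3-fold series (top 30,000 nM, duplicate), Hill fit with slope −1.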
Sequence of human TYK2 (JH2domain-pseudokinase) (P29597 556-888): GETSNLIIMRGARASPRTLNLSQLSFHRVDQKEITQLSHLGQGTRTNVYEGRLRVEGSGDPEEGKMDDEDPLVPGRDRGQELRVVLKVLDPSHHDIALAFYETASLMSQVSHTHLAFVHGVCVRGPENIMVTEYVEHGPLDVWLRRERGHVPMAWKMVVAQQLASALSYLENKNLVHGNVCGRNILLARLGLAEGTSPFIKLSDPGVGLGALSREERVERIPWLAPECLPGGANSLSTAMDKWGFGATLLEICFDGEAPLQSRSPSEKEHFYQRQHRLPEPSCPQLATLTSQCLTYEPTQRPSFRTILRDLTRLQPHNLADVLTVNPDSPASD
In the case of `CS(=O)(=O)c1cc([C@H]2CCCO2)ccc1Nc1cc(NC(=O)C2CC2)nc2[nH]c(C(F)F)nc12` [I-425, (R)—N-(2-(difluoromethyl)-7-((2-(methylsulfonyl)-4-(tetrahydrofuran-2-yl)phenyl)amino)-3H-imidazo[4,5-b]pyridin-5-yl)cyclopropanecarboxamide], the pKd – broadly, the Kd on a negative log10 scale, so that one unit is a factor of ten – was 9.30 to 10.00. As for `Cc1nc2c(Nc3ccc([C@@H]4CCCO4)cc3S(C)(=O)=O)cc(NC(=O)[C@@H]3CC3(F)F)nc2[nH]1` [I-426, (S)-2,2-difluoro-N-(2-methyl-7-((2-(methylsulfonyl)-4-((S)-tetrahydrofuran-2-yl)phenyl)amino)-3H-imidazo[4,5-b]pyridin-5-yl)cyclopropane-1-carboxamide], the figure is 9.30 to 10.00. As for `Cc1nc2c(Nc3ccc([C@@H]4CCCO4)cc3S(C)(=O)=O)cc(NC(=O)[C@H]3CC3(F)F)nc2[nH]1` [I-427, (R)-2,2-difluoro-N-(2-methyl-7-((2-(methylsulfonyl)-4-((S)-tetrahydrofuran-2-yl)phenyl)amino)-3H-imidazo[4,5-b]pyridin-5-yl)cyclopropane-1-carboxamide], the figure is 9.30 to 10.00; as for `CC1(C)COC(c2ccc(Nc3cc(NC(=O)[C@@H]4C[C@@H]4F)nc4[nH]c(C(F)F)nc34)c(S(C)(=O)=O)c2)=N1` [I-428, (1S,2S)—N-(2-(difluoromethyl)-7-((4-(4,4-dimethyl-4,5-dihydrooxazol-2-yl)-2-(methylsulfonyl)phenyl)amino)-3H-imidazo[4,5-b]pyridin-5-yl)-2-fluorocyclopropane-1-carboxamide], 8.00 to 9.00; as for `Cn1ccc(-c2ccc(Nc3cc(NC(=O)C4CC4)nc4[nH]c(C(F)F)nc34)c(P(C)(C)=O)c2)n1` [I-429, N-(2-(difluoromethyl)-7-((2-(dimethylphosphoryl)-4-(1-methyl-1H-pyrazol-3-yl)phenyl)amino)-3H-imidazo[4,5-b]pyridin-5-yl)cyclopropanecarboxamide], greater than 10.00.

Take `Cc1nc2c(Nc3ccc(-c4ccn(C)n4)cc3P(C)(C)=O)cc(NC(=O)C3CC3)nc2[nH]1` [I-430, N-(7-((2-(dimethylphosphoryl)-4-(1-methyl-1H-pyrazol-3-yl)phenyl)amino)-2-methyl-3H-imidazo[4,5-b]pyridin-5-yl)cyclopropanecarboxamide]: the pKd is 9.30 to 10.00.

Compound `Cc1nc2c(Nc3ccc(C4CCOCC4)cc3P(C)(C)=O)cc(NC(=O)C3CC3)nc2[nH]1` [I-431, N-(7-((2-(dimethylphosphoryl)-4-(tetrahydro-2H-pyran-4-yl)phenyl)amino)-2-methyl-3H-imidazo[4,5-b]pyridin-5-yl)cyclopropanecarboxamide] had a pKd of 9.00 to 9.30.

`CS(=O)(=O)c1cc(C2CCC2)ccc1Nc1cc(NC(=O)[C@H]2C[C@H]2F)nc2[nH]c(C(F)F)nc12` [I-432, (1R,2R)—N-(7-((4-cyclobutyl-2-(methylsulfonyl)phenyl)amino)-2-(difluoromethyl)-3H-imidazo[4,5-b]pyridin-5-yl)-2-fluorocyclopropane-1-carboxamide] gave a pKd of 8.00 to 9.00. As for `CS(=O)(=O)c1cc(C2CCC2)ccc1Nc1cc(NC(=O)[C@@H]2C[C@@H]2F)nc2[nH]c(C(F)F)nc12` [I-433, (1S, 2S)—N-(7-((4-cyclobutyl-2-(methylsulfonyl)phenyl)amino)-2-(difluoromethyl)-3H-imidazo[4,5-b]pyridin-5-yl)-2-fluorocyclopropane-1-carboxamide], the figure is 9.30 to 10.00. Take `Cc1cc(Nc2cc(Nc3ccc(C4CC4)cc3S(C)(=O)=O)c3nc(C)[nH]c3n2)nc(C)n1` [I-434, N7-(4-cyclopropyl-2-(methylsulfonyl)phenyl)-N5-(2,6-dimethylpyrimidin-4-yl)-2-methyl-3H-imidazo[4,5-b]pyridine-5,7-diamine]: the pKd was 9.30 to 10.00.

`Cc1nc2c(Nc3ccc(C4CC4)cc3S(C)(=O)=O)cc(Nc3cnc(C)c(C)n3)nc2[nH]1` [I-435, N7-(4-cyclopropyl-2-(methylsulfonyl)phenyl)-N5-(5,6-dimethylpyrazin-2-yl)-2-methyl-3H-imidazo[4,5-b]pyridine-5,7-diamine]: the pKd was 9.30 to 10.00. With `CS(=O)(=O)c1cc(C2CC2)ccc1Nc1cc(Nc2cc3n(n2)CCOC3)nc2[nH]c(C(F)F)nc12` [I-436, N7-(4-cyclopropyl-2-(methylsulfonyl)phenyl)-2-(difluoromethyl)-N5-(6,7-dihydro-4H-pyrazolo[5,1-c][1,4]oxazin-2-yl)-3H-imidazo[4,5-b]pyridine-5,7-diamine], the pKd is 9.30 to 10.00. As for `Cc1nc2c(Nc3ccc(C4CC4)cc3S(C)(=O)=O)cc(Nc3cc4n(n3)CCOC4)nc2[nH]1` [I-437, N7-(4-cyclopropyl-2-(methylsulfonyl)phenyl)-N5-(6,7-dihydro-4H-pyrazolo[5,1-c][1,4]oxazin-2-yl)-2-methyl-3H-imidazo[4,5-b]pyridine-5,7-diamine], the figure is greater than 10.00; as for `CS(=O)(=O)c1cc([C@@H]2CCCOC2)ccc1Nc1cc(NC(=O)[C@@H]2CC2(F)F)nc2[nH]c(C(F)F)nc12` [I-438, (S)—N-(2-(difluoromethyl)-7-((2-(methylsulfonyl)-4-((S)-tetrahydro-2H-pyran-3-yl)phenyl)amino)-3H-imidazo[4,5-b]pyridin-5-yl)-2,2-difluorocyclopropane-1-carboxamide], 8.00 to 9.00. On to `CS(=O)(=O)c1cc([C@@H]2CCCOC2)ccc1Nc1cc(NC(=O)[C@H]2CC2(F)F)nc2[nH]c(C(F)F)nc12` [I-439, (R)—N-(2-(difluoromethyl)-7-((2-(methylsulfonyl)-4-((S)-tetrahydro-2H-pyran-3-yl)phenyl)amino)-3H-imidazo[4,5-b]pyridin-5-yl)-2,2-difluorocyclopropane-1-carboxamide], for which the negative-log Kd (pKd) is 8.00 to 9.00. As for `COc1c(Nc2cc(NC(=O)[C@H]3C[C@H]3F)nc3[nH]c(C(F)F)nc23)cccc1-c1ncn(C)n1` [I-440, (1R,2R)—N-(2-(difluoromethyl)-7-((2-methoxy-3-(1-methyl-1H-1,2,4-triazol-3-yl)phenyl)amino)-3H-imidazo[4,5-b]pyridin-5-yl)-2-fluorocyclopropane-1-carboxamide], the figure is 9.30 to 10.00; as for `Cc1nc2c(Nc3ccccc3[S@+](C)[O-])cc(NC(=O)C3CC3)nc2[nH]1` [I-441, (S)—N-(2-methyl-7-((2-(methylsulfinyl)phenyl)amino)-3H-imidazo[4,5-b]pyridin-5-yl)cyclopropanecarboxamide], 8.00 to 9.00; as for `Cc1nc2c(Nc3ccccc3[S@@+](C)[O-])cc(NC(=O)C3CC3)nc2[nH]1` [I-442, (R)—N-(2-methyl-7-((2-(methylsulfinyl)phenyl)amino)-3H-imidazo[4,5-b]pyridin-5-yl)cyclopropanecarboxamide], less than 8.00.

Compound `Cc1nc2c(Nc3ccc(F)cc3S(C)(=O)=O)cc(NC(=O)C3CC3)nc2[nH]1` [I-443, N-(7-((4-fluoro-2-(methylsulfonyl)phenyl)amino)-2-methyl-3H-imidazo[4,5-b]pyridin-5-yl)cyclopropanecarboxamide] gave a pKd of 9.30 to 10.00.

In turn, `CP(C)(=O)c1cc(C2CCC2)ccc1Nc1cc(NC(=O)C2CC2)nc2[nH]c(C(F)F)nc12` [I-444, N-(7-((4-cyclobutyl-2-(dimethylphosphoryl)phenyl)amino)-2-(difluoromethyl)-3H-imidazo[4,5-b]pyridin-5-yl)cyclopropane carboxamide] showed a pKd of 9.30 to 10.00. The compound `Cc1nc2c(Nc3ccc(C4CCC4)cc3P(C)(C)=O)cc(NC(=O)C3CC3)nc2[nH]1` [I-445, N-(7-((4-cyclobutyl-2-(dimethylphosphoryl)phenyl)amino)-2-methyl-3H-imidazo[4,5-b]pyridin-5-yl)cyclopropanecarboxamide] had a pKd of 9.30 to 10.00. As for `Cc1nn(C)c(C)c1-c1ccc(Nc2cc(NC(=O)C3CC3)nc3[nH]c(C(F)F)nc23)c(S(C)(=O)=O)c1` [I-446, N-(2-(difluoromethyl)-7-((2-(methylsulfonyl)-4-(1,3,5-trimethyl-1H-pyrazol-4-yl)phenyl)amino)-3H-imidazo[4,5-b]pyridin-5-yl)cyclopropanecarboxamide], the figure is 9.30 to 10.00; as for `Cc1nc2c(Nc3ccc(-c4c(C)nn(C)c4C)cc3S(C)(=O)=O)cc(NC(=O)C3CC3)nc2[nH]1` [I-447, N-(2-methyl-7-((2-(methylsulfonyl)-4-(1,3,5-trimethyl-1H-pyrazol-4-yl)phenyl)amino)-3H-imidazo[4,5-b]pyridin-5-yl)cyclopropanecarboxamide], 9.30 to 10.00; as for `[2H]C([2H])([2H])S(=O)(=O)N(C)c1ccccc1Nc1cc(Nc2cc(C)nc(C)n2)nc2[nH]c(C(F)F)nc12` [I-448, N-(2-((2-(difluoromethyl)-5-((2,6-dimethylpyrimidin-4-yl)amino)-3H-imidazo[4,5-b]pyridin-7-yl)amino)phenyl)-N-methylmethanesulfonamide-d3], 9.30 to 10.00.

`Cc1nc2c(Nc3ccc(-c4nn(C)cc4C)cc3S(C)(=O)=O)cc(Nc3cnc(C)c(C)n3)nc2[nH]1` [I-449, N7-(4-(1,4-dimethyl-1H-pyrazol-3-yl)-2-(methylsulfonyl)phenyl)-N5-(5,6-dimethylpyrazin-2-yl)-2-methyl-3H-imidazo[4,5-b]pyridine-5,7-diamine] gave a negative-log Kd (pKd) of 9.30 to 10.00. As for `Cc1cn(C)c(-c2ccc(Nc3cc(NC(=O)C4CC4)nc4[nH]c(C(F)F)nc34)c(S(C)(=O)=O)c2)n1` [I-450, N-(2-(difluoromethyl)-7-((4-(1,4-dimethyl-1H-imidazol-2-yl)-2-(methylsulfonyl)phenyl)amino)-3H-imidazo[4,5-b]pyridin-5-yl)cyclopropanecarboxamide], the figure is 9.30 to 10.00; as for `Cc1cnc(-c2ccc(Nc3cc(NC(=O)C4CC4)nc4[nH]c(C(F)F)nc34)c(S(C)(=O)=O)c2)n1C` [I-451, N-(2-(difluoromethyl)-7-((4-(1,5-dimethyl-1H-imidazol-2-yl)-2-(methylsulfonyl)phenyl)amino)-3H-imidazo[4,5-b]pyridin-5-yl)cyclopropaneCarboxamide], 9.30 to 10.00.
